Data taken from US11053226B2, “KRAS G12C inhibitors and methods of using the same” (Amgen Inc., priority 2018, dated 2021).
Read-outs that look alike come from different tables or passages of the source.

Assays:
[1] = test system: Phosphorylation of ERK1/2 in A549 cells; assay: Phospho-ERK1/2 MSD Assay (A549); type: cell-based; conditions: Homo sapiens
[2] = test system: Phosphorylation of ERK1/2 in MIA PaCa-2 cells; assay: Phospho-ERK1/2 MSD Assay; type: cell-based; conditions: Homo sapiens, MiaPaCa-2 cells
Description: (§1) For compounds in Table 9, the following assay conditions were employed:
Phospho-ERK1/2 MSD Assay:
Sixteen hours prior to compound treatment, MIA PaCa-2 cells were seeded in 96-well cell culture plates at a density of 25,000 cells/well and incubated at 37° C., 5% CO2. […] Following compound treatment, cells were stimulated with 10 ng/mL EGF (Roche 11376454001) for 10 min, washed with ice-cold Dulbecco's phosphate-buffered saline, no Ca^2+ or Mg^2+ (ThermoFisher Scientific 14190144), and then lysed in RIPA buffer (50 mM Tris-HCl pH 7.5, 1% Igepal, 0.5% sodium deoxycholate, 150 mM NaCl, and 0.5% sodium dodecyl sulfate) containing protease inhibitors (Roche 4693132001) and phosphatase inhibitors (Roche 4906837001). […] Assay plates were read on a Meso Scale Discovery Sector Imager 6000, and data were analyzed using a 4-parameter logistic model to calculate IC50 values.

[3] = molecular target: GDP-bound KRAS protein (aa 1-169), containing both G12C and C118A amino acid substitutions (Homo sapiens (Human), UniProt P01116, C118A/G12C); assay: Coupled Nucleotide Exchange Assay; type: biochemical
Sequence of GDP-bound KRAS protein (aa 1-169), containing both G12C and C118A amino acid substitutions (P01116 other isoform, or with tags, fused parts or gaps G12C/C118A): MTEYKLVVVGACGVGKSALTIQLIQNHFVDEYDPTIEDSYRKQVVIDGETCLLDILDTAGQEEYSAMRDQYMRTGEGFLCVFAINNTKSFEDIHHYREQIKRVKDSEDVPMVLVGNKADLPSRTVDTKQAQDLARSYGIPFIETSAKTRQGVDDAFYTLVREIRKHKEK
Description: as §1
Coupled Nucleotide Exchange Assay:
The assay plates were then read on a PerkinElmer EnVision Multilabel Reader, using AlphaScreen® technology, and data were analyzed using a 4-parameter logistic model to calculate IC50 values.

[4] = A549, 4 h, read-out: pERK IC50 (4 h, A549), 4 h compound treatment
[5] = MIA PaCa-2, 4 h, read-out: pERK IC50 (4 h, MiaPaCa-2), 4 h compound treatment
[6] = read-out: Coupled Exchange IC50 (2 h), 2 h compound pre-incubation
[7] = read-out: Coupled Exchange IC50 (20 h), 20 h compound pre-incubation
[8] = first Coupled Exchange column, compound pre-incubation probably 5 min (rest of head not shown; b435 lists 5 min, 2 hours or 20 hours), read-out: Coupled Exchange IC50
[9] = third Coupled Exchange column, compound pre-incubation probably 20 hours (rest of head not shown; b435 lists 5 min, 2 hours or 20 hours), read-out: Coupled Exchange IC50
[10] = second Coupled Exchange column, read-out: Coupled Exchange IC50

Row | SMILES | IC50 [1, 4] | IC50 [3, 6] | IC50 [3, 7] | other results
1 | C=CC(=O)N1CC(NC(=O)Cn2c(C)c(C(=O)N3CCN(c4ccc(C)cn4)CC3)c3cc(Br)ccc32)C1 [Example 29] | > 100 µM |  |  | IC50 [2, 5]: 2.66 µM
2 | C=CC(=O)N1CC(NC(=O)Cn2c3c(c4cc(Br)ccc42)CCN(C(=O)OC(C)(C)C)C3)C1 [Example 100] |  |  |  | IC50 ([1]; read-out: pERK IC50 (4 h), 4 h compound treatment): > 33.3 µM; IC50 ([2]; MIA PaCa-2, read-out: pERK IC50 (4 h), 4 h compound treatment): 19.4 µM
3 | C=CC(=O)N1CC(NC(=O)Cn2cc(C(=O)N3CCN(c4ccccn4)CC3)c3cc(Br)ccc32)C1 [Example 60] | > 100 µM |  |  | 
4 | C=CC(=O)N1CC(NC(=O)Cn2c(C)c(C(=O)N3CCN(c4ccc(Br)cn4)CC3)c3cc(Br)ccc32)C1 [Example 34] | > 100 µM |  |  | IC50 [2, 5]: 3.06 µM
5 | C=CC(=O)N1CC(NC(=O)Cn2c(C)c(C(=O)N3CCc4ncccc4C3)c3cc(Br)ccc32)C1 [Example 116] | > 100 µM |  |  | IC50 [2, 5]: 28.5 µM
6 | C=CC(=O)N1CC(NC(=O)Cn2c(C)c(C(=O)N3CCOC(C)(C)C3)c3cc(Br)ccc32)C1 [Example 64] | > 100 µM |  |  | IC50 [2, 5]: 7.74 µM
7 | C=CC(=O)N1CC(NC(=O)C(C)n2c(C)c(C(=O)N3CCc4c(cccc4OC)C3)c3cc(Cl)ccc32)C1 (stereo not shown) [Example 126] | 48.4 µM |  |  | IC50 [2, 5]: 33.9 µM
8 | C=CC(=O)N1CC(NC(=O)Cn2c(C3CC3)c(C(=O)N3CCc4c(cccc4OC)C3)c3cc(Cl)cc(C)c32)C1 [Example 1-7, 2-(5-Chloro-2-cyclopropyl-3-((5-methoxy-3,4-dihydro-2(1H)-isoquinolinyl)carbonyl)-7-methyl-1H-indol-1-yl)-N-(1-(2-propenoyl)-3-azetidinyl)acetamide] | 60.4 µM |  |  | 
9 | C=CC(=O)N1CC(NC(=O)Cn2cc(C(=O)NCc3ccccc3)c3cc(Br)ccc32)C1 [Example 163] | > 100 µM |  |  | 
10 | C=CC(=O)N1CC(NC(=O)Cn2cc(C(=O)N3CCc4cc(F)ccc4C3)c3cc(Br)ccc32)C1 [Example 114] | > 100 µM |  |  | 
11 | C=CC(=O)N1CC(NC(=O)Cn2cc(C(=O)N3CCc4c(F)cccc4C3)c3cc(Br)ccc32)C1 [Example 118] | > 100 µM |  |  | 
12 | C=CC(=O)N1CC(NC(=O)Cn2cc(C(=O)N3CCc4c(cccc4OC)C3)c3cc(Br)cc(C)c32)C1 [Example 82] | > 100 µM |  |  | 
13 | C=CC(=O)N1CC(NC(=O)Cn2cc(C(=O)N(C)Cc3ccccc3)c3cc(Br)ccc32)C1 [Example 155] | > 100 µM |  |  | 
14 | C=CC(=O)N1CC(NC(=O)Cn2c(C)c(C(=O)N3CCc4c(cccc4OC)C3)c3cc(Br)ccc32)C1C (stereo not shown) [Example 44] | > 100 µM |  |  | 
15 | C=CC(=O)N1CC(N(C)C(=O)Cn2cc(C(=O)N3CCc4c(ccnc4OC)C3)c3c(Cl)c(Cl)ccc32)C1 [Example 7] |  | 0.45 µM |  | IC50 [2, 5]: 1.33 µM
16 | C=CC(=O)N1CC(NC(=O)Cn2c(C(=O)NCc3ccccc3)c(I)c3cc(Br)ccc32)C1 [Example 192] |  | 107 µM | 61.7 µM | 
17 | C=CC(=O)N1CC(NC(=O)Cn2cc(C(=O)N3CCc4ccccc4C3)c3cc(Br)ccc32)C1 [Example 129] | > 100 µM |  |  | 
18 | C=CC(=O)N1CC(NC(=O)Cn2c(C(=O)OC)cc3c(Cl)c(Cl)ccc32)C1 [Example 220] |  | 12.2 µM | 1.89 µM | 
19 | C=CC(=O)N1CC(NC(=O)Cn2c(C)cc3cc(Br)ccc32)C1 [Example 347] |  |  |  | IC50 [3, 8]: > 250 µM; IC50 [3, 9]: 1.47 µM
20 | C=CC(=O)N1CC(NC(=O)Cn2cc(-c3cccnc3)c3cc(-c4cccnc4)ccc32)C1 [Example 207] |  | 164 µM | 18.2 µM | 
21 | C=CC(=O)N1CC(NC(=O)Cn2c3c(c4cc(Br)ccc42)C=NCC3)C1 [Example 238] |  | 73.1 µM | 9.89 µM | 
22 | C=CC(=O)N1CC(NC(=O)Cn2ccc3ccccc32)C1 [Example 183] |  | > 250 µM | > 250 µM | 
23 | C=CC(=O)N1CC(NC(=O)Cn2c3c(c4cc(Br)ccc42)CNCC3)C1 [Example 249] |  | 54.6 µM | 21.7 µM | 
24 | C=CC(=O)N1CC(NC(=O)Cn2cc(CC(=O)N3CCOC4CC(N(C)C)CCC43)c3cc(Br)ccc32)C1 (stereo not shown) [Example 329] |  |  |  | IC50 [3, 8]: 85.8 µM
25 | C=CC(=O)N1C[C@H](N(C)C(=O)Cn2ccc3cc(Br)ccc32)[C@@H]1C [Example 364] |  |  |  | IC50 [3, 8]: > 250 µM; IC50 [3, 9]: 8.14 µM
26 | C=CC(=O)N1CC(NC(=O)Cn2cc(C(=O)NCCc3ccccc3)c3cc(Br)ccc32)C1 [Example 140] | > 100 µM |  |  | 
27 | C=CC(=O)N1CC(NC(=O)Cn2cc(Cc3ccccc3)c3cc(Br)ccc32)C1 [Example 231] |  | 10.3 µM | 2.05 µM | 

Row | SMILES | IC50 [1, 4] | IC50 [3, 6] | IC50 [3, 7] | other results
28 | C=CC(=O)N1CC(NC(=O)Cn2cc(C(=O)N3CCc4c(Cl)cccc4C3)c3cc(Br)ccc32)C1 [Example 109] | 21.3 µM |  |  | 
29 | C=CC(=O)N1CC(NC(=O)Cn2ccc3cc(C(F)(F)F)ccc32)C1 [Example 235] |  | > 250 µM | 5.45 µM | 
30 | C=CC(=O)N1CC(NC(=O)Cn2ccc3cc([N+](=O)[O-])ccc32)C1 [Example 232] |  | > 250 µM | 94.1 µM | 
31 | C=CC(=O)N1CC(N(C)C(=O)Cn2c(C)c(-c3cnccc3C3=CCCCC3)c3cc(Cl)cc(C)c32)C1 [Example 337] |  |  |  | IC50 [3, 8]: 2.02 µM
32 | C=CC(=O)N1CC(NC(=O)Cn2c(C)c(-c3c(OC)cccc3OC)c3cc(Cl)cc(C)c32)C1 [Example 343] |  |  |  | IC50 [3, 8]: 13.6 µM
33 | C=CC(=O)N1CC(NC(=O)Cn2c(C)c(C(=O)N3CCc4c(cccc4OC)C3)c3cc(Cl)cc(C)c32)C1 [Example 3-1, 2-(5-Chloro-3-((5-methoxy-3,4-dihydro-2(1H)-isoquinolinyl)carbonyl)-2,7-dimethyl-1H-indol-1-yl)-N-(1-(2-propenoyl)-3-azetidinyl)acetamide] | > 100 µM |  |  | 
34 | C=CC(=O)N1CC(N(C)C(=O)Cn2c3ccccc3c3cc(Br)ccc32)C1 [Example 261] |  | 15.4 µM | 2.17 µM | 
35 | C=CC(=O)N1CC(NC(=O)Cn2c3ccccc3c3ccccc32)C1 [Example 195] |  | > 250 µM | 33.5 µM | 
36 | C=CC(=O)N1CC(NC(=O)Cn2c(C)c(-c3cnccc3C3=CCCCCC3)c3cc(Cl)cc(C)c32)C1 [Example 340] |  |  |  | IC50 [3, 8]: 0.89 µM
37 | C=CC(=O)N1CC(NC(=O)Cn2cc(-c3c(F)ccc4cn[nH]c34)c3cc(-c4c(F)ccc5cn[nH]c45)ccc32)C1 [Example 208] |  | 20.5 µM | 13 µM | 
38 | C=CC(=O)N1CC(CO)(N(C)C(=O)Cn2ccc3cc(Br)ccc32)C1 [Example 354] |  |  |  | IC50 [3, 8]: > 250 µM; IC50 [3, 9]: > 62.5 µM
39 | C=CC(=O)N1CC(NC(=O)Cn2ccc3cc(OC)ccc32)C1 [Example 236] |  | > 250 µM | > 250 µM | 
40 | C=CC(=O)N1CC(NC(=O)Cn2cc(-c3ccccc3OC)c3cc(-c4ccccc4OC)ccc32)C1 [Example 209] |  | 14.1 µM | 3.01 µM | 
41 | C=CC(=O)N1CC(NC(=O)Cn2ccc3cc(Br)cc(F)c32)C1 [Example 267] |  | 15.5 µM | 2.25 µM | 
42 | C=CC(=O)N1CC(NC(=O)Cn2c(C#N)c(I)c3cc(Br)ccc32)C1 [Example 304] |  |  |  | IC50 [3, 10]: 7.24 µM; IC50 [3, 9]: 1.24 µM
43 | C=CC(=O)N1CC(C)(N(C)C(=O)Cn2ccc3cc(Br)ccc32)C1 [Example 356] |  |  |  | IC50 [3, 8]: > 250 µM; IC50 [3, 9]: > 31.3 µM
44 | C=CC(=O)N1CC(NC(=O)Cn2ccc3cc(Cl)c(Cl)cc32)C1 [Example 258] |  | 104 µM | 5.22 µM | 
45 | C=CC(=O)N1CC(NC(=O)Cn2ccc3cc(Br)ccc32)C1 [Example 180] |  | > 250 µM | 5.5 µM | IC50 ([3]; read-out: Coupled Exchange IC50 (5 min), 5 min compound pre-incubation): 201 µM
46 | C=CC(=O)N1CC(NC(=O)Cn2ccc3cc(CC)ccc32)C1 [Example 277] |  |  |  | IC50 [3, 10]: > 250 µM; IC50 [3, 9]: > 250 µM
47 | C=CC(=O)N1CC(N(C)C(=O)Cn2ccc3cc(Cl)ccc32)C1 [Example 358] |  |  |  | IC50 [3, 8]: > 250 µM; IC50 [3, 9]: 3.2 µM
48 | C=CC(=O)N1CC(N(C)C(=O)Cn2ccc3cc(Br)c(C)cc32)C1 [Example 357] |  |  |  | IC50 [3, 8]: > 250 µM; IC50 [3, 9]: 6.78 µM
49 | C=CC(=O)N1CC(NC(=O)Cn2c(C)c(C(=O)N3CCN(c4ccc(C)cn4)CC3)c3cc(Cl)cc(C)c32)C1 [Example 24] | > 100 µM |  |  | 
50 | C=CC(=O)N1CC(N(C)C(=O)Cn2ccc3cc(Br)ccc32)C1 [Example 346] |  |  |  | IC50 [3, 8]: > 250 µM; IC50 [3, 9]: 2.73 µM
51 | C=CC(=O)N1CC(NC(=O)Cn2c(C)c(-c3ccccc3Cc3ccccc3)c3cc(Cl)cc(C)c32)C1 [Example 336] |  |  |  | IC50 [3, 8]: 2.11 µM
52 | C=CC(=O)N1CC(NC(=O)Cn2ccc3cc(C4CC4)ccc32)C1 [Example 217] |  | > 250 µM | > 125 µM | 
53 | C=CC(=O)N1CC(NC(=O)Cn2cc(CC(=O)NCc3ccccc3)c3cc(Br)ccc32)C1 [Example 226] |  | 8.23 µM | 1.66 µM | 
54 | C=CC(=O)N1CC(NC(=O)Cn2ccc3cccc(Cl)c32)C1 [Example 203] |  | > 250 µM | > 250 µM | 
